Measurements: patent US20140163050A1, “Use of 1H-quinazoline-2,4-diones” (priority 2011, published 2014)
Several values for one entry are separate records, joined by “and”; a condition that tells them apart may be missing. Identical values can stand only once. Entries after “also recorded” stand apart in the source; their conditions may differ.

Test system: patients with PSE
Assay: IPS/PPR proof of concept study: suppression of PPR or reduction of SPR after single oral doses
Format: in vivo, human
Design: key to Maximum reduction of SPR: Overall reduction, Median: SPR steps (number of frequencies eliciting PPR), range 0-14
Conditions: for duration of maintained suppression of PPR: 2 individual patients; for PD effect of C7 / Effect maintained: reduction of SPR (≧3) / Effect maintained: suppression of PPR / Onset Time of reduction of SPR (≧3) / Onset Time of suppression of PPR: individual patients
Experimental: In patients with photosensitive epilepsy, a standardized photoparoxysmal response range (SPR) may be determined by performing the IPS with a standardized series of flash frequencies, for instance 14 frequencies from a range of 2 to 60 Hz. SPR is a dimensionless parameter and is defined as the number of frequencies (steps) between the lowest and highest frequencies, e.g. between 2 and 60 Hz, that consistently elicit a PPR. If 14 frequencies are tested, the minimum and maximum possible SPR values are 0 and 14. Zero means complete abolition of reactivity on any stimulation frequency, i.e. complete abolishment of the PPR. SPR is relatively stable for each patient and reflects the liability for seizures in daily life. The potential efficacy of an AED could be assessed by measuring hourly changes in the SPR after a single oral dose given to the PSE patients.
The study used the IPS/PPR paradigm. It was a multicenter, non-randomized, single blind, within-subject, placebo-controlled proof of concept study conducted to assess the effect of single oral doses of the compounded formula C-7 in suppressing the photoparoxysmal response (PPR) or reducing the standardized photoparoxysmal response range (SPR) in patients with PSE. Photosensitivity was detected using electroencephalography (EEG) measurements of subjects exposed to Intermittent Photic Stimulation (IPS). This EEG response was a photoparoxysmal response (PPR). For the purpose of the study, provocation of PPRs by IPS, not of seizures, was required. The SPR of each patient was the number of standard visual stimulation frequencies (in Hertz) that the patient was sensitive to, between the lower and upper thresholds. 14 frequencies were tested (from 2 to 60 Hertz). The time of onset and the duration of response (PPR suppression or SPR reduction) to the treatment with Compound C-7 in patients with PSE and the maximal reduction in SPR in patients with PSE were also evaluated.
Women of child-bearing potential (WOCBP) were asked to use acceptable methods of contraception. Patients with an SPR value of 3 or less at the screening and patients with no consistent PPR (less than 3 SPR steps difference between the two evaluations required) when stimulated by intermittent photic stimulation (IPS), as determined by comparison between screening and pre-dose Day 1, were excluded from the study. Furthermore subjects with history of status epilepticus and/or regular use of benzodiazepines as rescue medication, subjects with evidence or history of any medically significant cardiac, respiratory, hepatic, gastrointestinal, renal, hematologic, oncologic or progressive neurological disorder, requiring current medical intervention/therapy likely to have a significant impact on the outcome of this study, were also excluded.
There were three periods: a screening period for the assessment of patient's eligibility for participation in the study; a 3-day in hospital treatment period with single-blind dosing with placebo on days 1 and 3, and the compound of formula C-7 on day 2; and a study completion period consisting of a follow-up call by the medical investigator to the patient between day 10 and day 14 inclusive and a full study completion visit between day 29 and day 33 inclusive.
The dose of the compound of formula C-7 in Cohort studies I, II and III was 50, 100 and 15 mg respectively.

SMILES: CC(C)c1cc2[nH]c(=O)n(NS(C)(=O)=O)c(=O)c2cc1-c1ccnn1C [Compound C-7, N-[7-Isopropyl-6-(2-methyl-2H-pyrazol-3-yl)-2,4-dioxo-1,4-dihydro-2H-quinazolin-3-yl]-methanesulfonamide]
- magnitude of the post-treatment effect between doses (15, 50, 100 mg): dose dependent
- PD effect compared to C-7 50 and 100 mg dose groups (C-7 15 mg dose group): numerically markedly lower PD effect; also recorded: numerically lower but still measurable PD effect
- proportion of subjects with suppression of PPR (C-7 15 mg dose group): 33%
- patients with complete suppression of PPR (C-7 15 mg dose group (Cohort III), Day 2): 1 out of 3 and 1 of 3
- maintenance of SPR response and PPR suppression (C-7 15 mg group): none of the patients maintained the SPR response; also recorded: neither the SPR response nor suppression of PPR was maintained
- onset of suppression of PPR post dosing (C-7 15 mg group, one patient, eye open only, not maintained): 2 h
- Maximum reduction of SPR: Overall reduction, Mean (SD) (C-7 15 mg, eye closed, n=3): 6.7 (1.15)
- Maximum reduction of SPR: Overall reduction, Median (C-7 15 mg, eye closed, n=3): 6.0
- Maximum reduction of SPR: Reduction from predose Day 2, Mean (SD) (C-7 15 mg, eye closed, n=3): 5.0 (3.61)
- Maximum reduction of SPR: Reduction from predose Day 2, Median (C-7 15 mg, eye closed, n=3): 6.0
- Maximum reduction of SPR: Overall reduction, Mean (SD) (C-7 15 mg, eye closure, n=3): 8.0 (1.73)
- Maximum reduction of SPR: Overall reduction, Median (C-7 15 mg, eye closure, n=3): 9.0
- Maximum reduction of SPR: Reduction from predose Day 2, Mean (SD) (C-7 15 mg, eye closure, n=3): 7.3 (2.89)
- Maximum reduction of SPR: Reduction from predose Day 2, Median (C-7 15 mg, eye closure, n=3): 9.0
- Maximum reduction of SPR: Overall reduction, Mean (SD) (C-7 15 mg, eyes open, n=3): 4.0 (3.46)
- Maximum reduction of SPR: Overall reduction, Median (C-7 15 mg, eyes open, n=3): 2.0
- Maximum reduction of SPR: Reduction from predose Day 2, Mean (SD) (C-7 15 mg, eyes open, n=3): 3.0 (4.36)
- Maximum reduction of SPR: Reduction from predose Day 2, Median (C-7 15 mg, eyes open, n=3): 1.0
- AUECt on Day 2 compared to Day 1 (C-7 50 mg and 100 mg dose groups, all eye conditions): significantly lower
- proportion of subjects with suppression of PPR (C-7 50 mg dose group): 50%
- patients with complete suppression of PPR (C-7 50 mg dose group (Cohort I), Day 2): 3 of 6
- patients with reductions of the SPR range by at least 3 steps in at least one eye condition (C-7 50 mg dose group (Cohort I, 6 patients), Day 2): 6 patients
- duration of maintained suppression of PPR (C-7 50 mg group): 2 h and 7 h
- Maximum reduction of SPR: Overall reduction, Mean (SD) (C-7 50 mg, eye closed, n=6): 6.0 (2.37)
- Maximum reduction of SPR: Overall reduction, Median (C-7 50 mg, eye closed, n=6): 6.0
- Maximum reduction of SPR: Reduction from predose Day 2, Mean (SD) (C-7 50 mg, eye closed, n=6): 5.0 (2.00)
- Maximum reduction of SPR: Reduction from predose Day 2, Median (C-7 50 mg, eye closed, n=6): 5.0
- Maximum reduction of SPR: Overall reduction, Mean (SD) (C-7 50 mg, eye closure, n=6): 7.7 (3.01)
- Maximum reduction of SPR: Overall reduction, Median (C-7 50 mg, eye closure, n=6): 8.5
- Maximum reduction of SPR: Reduction from predose Day 2, Mean (SD) (C-7 50 mg, eye closure, n=6): 6.5 (2.95)
- Maximum reduction of SPR: Reduction from predose Day 2, Median (C-7 50 mg, eye closure, n=6): 7.5
- Maximum reduction of SPR: Overall reduction, Mean (SD) (C-7 50 mg, eyes open, n=6): 6.8 (2.99)
- Maximum reduction of SPR: Overall reduction, Median (C-7 50 mg, eyes open, n=6): 7.5
- Maximum reduction of SPR: Reduction from predose Day 2, Mean (SD) (C-7 50 mg, eyes open, n=6): 4.8 (3.43)
- Maximum reduction of SPR: Reduction from predose Day 2, Median (C-7 50 mg, eyes open, n=6): 6.5
- proportion of subjects with suppression of PPR (C-7 100 mg dose group): 75%
- time to maximum reduction of SPR compared to the other 2 dose groups (C-7 100 mg dose group): shorter
- patients with complete suppression of PPR (C-7 100 mg dose group (Cohort II), Day 2): 3 out of 4 and 3 of 4
- duration of maintained suppression of PPR (C-7 100 mg group): 4 h and 3 h
- Maximum reduction of SPR: Overall reduction, Mean (SD) (C-7 100 mg, eye closed, n=4): 7.5 (2.38)
- Maximum reduction of SPR: Overall reduction, Median (C-7 100 mg, eye closed, n=4): 8.5
- Maximum reduction of SPR: Reduction from predose Day 2, Mean (SD) (C-7 100 mg, eye closed, n=4): 6.5 (2.38)
- Maximum reduction of SPR: Reduction from predose Day 2, Median (C-7 100 mg, eye closed, n=4): 6.5
- Maximum reduction of SPR: Overall reduction, Mean (SD) (C-7 100 mg, eye closure, n=4): 9.3 (2.22)
- Maximum reduction of SPR: Overall reduction, Median (C-7 100 mg, eye closure, n=4): 10.0
- Maximum reduction of SPR: Reduction from predose Day 2, Mean (SD) (C-7 100 mg, eye closure, n=4): 8.3 (1.50)
- Maximum reduction of SPR: Reduction from predose Day 2, Median (C-7 100 mg, eye closure, n=4): 9.0
- Maximum reduction of SPR: Overall reduction, Mean (SD) (C-7 100 mg, eyes open, n=4): 8.8 (2.50)
- Maximum reduction of SPR: Overall reduction, Median (C-7 100 mg, eyes open, n=4): 8.5
- Maximum reduction of SPR: Reduction from predose Day 2, Mean (SD) (C-7 100 mg, eyes open, n=4): 7.0 (1.41)
- Maximum reduction of SPR: Reduction from predose Day 2, Median (C-7 100 mg, eyes open, n=4): 6.5
- maximum duration of maintenance of suppression of PPR (C-7 50 and 100 mg dose groups): 7 h
- duration of maintained SPR response (maximum duration of maintenance) (C-7 50 and 100 mg dose groups, patients staying in responding status): 33 h
- PD effect of C7 (Cohort I, C-7 50 mg single oral dose): Suppression of PPR^e; also recorded: Reduction of SPR (≧3)
- Effect maintained: reduction of SPR (≧3) (Cohort I, C-7 50 mg): No (4×) and Yes (2×)
- Effect maintained: suppression of PPR (Cohort I, C-7 50 mg): No (2×) and Yes (2×)
- Onset Time of reduction of SPR (≧3) (Cohort I, C-7 50 mg): 2 h (2×) and 1 h (3×)
- Onset Time of suppression of PPR (Cohort I, C-7 50 mg): 2 h and 3 h and 4 h
- PD effect of C7 (Cohort II, C-7 100 mg single oral dose): Suppression of PPR; also recorded: Reduction of SPR (≧3)
- Effect maintained: reduction of SPR (≧3) (Cohort II, C-7 100 mg): No (3×) and Yes
- Effect maintained: suppression of PPR (Cohort II, C-7 100 mg): Yes (2×) and No
- Onset Time of reduction of SPR (≧3) (Cohort II, C-7 100 mg): 1 h (3×) and 2 h
- Onset Time of suppression of PPR (Cohort II, C-7 100 mg): 2 h (2×) and 3 h
- PD effect of C7 (Cohort III, C-7 15 mg single oral dose): Suppression of PPR^e; also recorded: Reduction of SPR (≧3)
- Effect maintained: reduction of SPR (≧3) (Cohort III, C-7 15 mg): No
- Effect maintained: suppression of PPR (Cohort III, C-7 15 mg): No
- Onset Time of reduction of SPR (≧3) (Cohort III, C-7 15 mg): 1 h
- Onset Time of suppression of PPR (Cohort III, C-7 15 mg): 2 h
- patients with reductions of the SPR range by at least 3 steps in at least one eye condition (Cohorts II and III (100 mg and 15 mg, 7 patients), Day 2): 7 patients
- patients who showed suppression of PPR (Table 2 count) (all dose groups, 13 patients, includes suppression noted already at 0 hours): 9 patients
- patients with complete suppression of PPR (all three dose groups (15, 50, 100 mg)): 7 of the 13 and 7 of 13
- impact of concomitant treatment with selected AEDs on the PD effect of C-7 (valproate, lamotrigine, levetiracetam, topiramate, zonisamide as concomitant AEDs): did not appear to relevantly impact the PD effect
